How the values were obtained:
Format in all cases: cell-based
[1] = target: T1, human CIC-1 channels (Homo sapiens, UniProt P35523); assay: Automated patch-clamp on the human isoform of CIC-1 expressed in CHO cells; conditions: compound added to the intracellular solution vs control cell patches, positive shift reflects inhibition
T1 construct: host or cells: CHO (Chinese hamster ovary) cells, cryopreserved, used directly after thawing
Description: The investigatory goal of these experiments was to evaluate how compounds affect the open probability and current amplitude of human CIC-1 channels expressed in CHO cells. Experiments were performed using an automated patch clamp system that allowed high throughput testing of whole cell patches together with both intracellular and extracellular addition of compound.
Automated whole cell patch clamp experiments were performed with the Qpatch 16 system (Sophion Bioscience, Ballerup, Denmark) at room temperature. Data acquisition and analysis were performed in the Qassay software (ver. 5.6, Odense).
To obtain tail currents, the membrane potential was stepped to −100 mV after each test voltage for 300 ms and then relaxed to −30 mV for 2 sec between sweeps (FIG. 3). I/V relationships for whole cell instant and steady state current amplitudes were obtained by plotting average current densities at the beginning and at the end of the 300 ms step against the membrane potential (FIG. 4).
In order to determine the relative overall open probability (Po), the instantaneous tail currents were normalized to the maximal tail current obtained following the most positive voltage step and plotted against the test voltage. Plots of normalized tail currents from each whole cell patch were then fitted to a Boltzmann function allowing determination of half activation voltages (V1/2, FIG. 5).
Osmolality adjusted to ˜320 using sucrose. Intracellular solutions contained: 80 mM CsF, 60 mM CsCl, 5/1 mM KOH/EGTA, 10 mM HEPES, 10 mM NaCl, pH adjusted to 7.2 with NaOH (2 M). Osmolality adjusted to ˜320 mOsm using sucrose.
Cells used in patch clamp experiments were Chinese hamster ovary cells (CHO) constitutively expressing human CIC-1 channels. The amino acid sequence encoded by the cDNA used to create this cell line was identical to the translated sequence for GenBank accession number NM_000083.2. Cells were produced by Charles River (Catalogue CT6175, Cleveland Ohio, USA) in a cryopreserved format. Experiments were performed on the cells directly after thawing (3×10^6 cells used in each experiment).
To evaluate the compound effect on CIC-1, when applied directly to the intracellular side of the cell membrane, the half activation voltage, V1/2, was determined from whole cell patches with compound added to the intracellular solution and then compared to V1/2 determined from control cell patches with only vehicle added to the intracellular solution. Additionally, the effect of extracellular added compound was evaluated by determine V1/2 and steady state current amplitudes before and after exchanging the extracellular solution to contain compound.
The difference in half activation voltage of CIC-1 channels, ΔV1/2, was determined as the difference between the cell patches treated intracellularly with compound and control cells patches and is reported in Table 4 below. A positive shift in ΔV1/2 is reflecting CIC-1 channel inhibition by the tested compound. P-values of <0.05 is considered significant.

[2] = target: T2, CIC-1 ion channel (Rattus norvegicus, UniProt P35524); assay: Electrophysiological measurement (Gm, three micro-electrodes) of compound inhibition of CIC-1 in rat soleus muscle fibres; conditions: approx. 30° C., four increasing compound concentrations, read-out: EC50 (inhibition of CIC-1 ion channel, reduction of Gm)
T2 construct: CIC-1 channels in native tissue of rat skeletal muscle fibres; from tissue; host or cells: whole soleus muscle of 12-14 week old Wistar rats
T2 sequence (P35524 1-994): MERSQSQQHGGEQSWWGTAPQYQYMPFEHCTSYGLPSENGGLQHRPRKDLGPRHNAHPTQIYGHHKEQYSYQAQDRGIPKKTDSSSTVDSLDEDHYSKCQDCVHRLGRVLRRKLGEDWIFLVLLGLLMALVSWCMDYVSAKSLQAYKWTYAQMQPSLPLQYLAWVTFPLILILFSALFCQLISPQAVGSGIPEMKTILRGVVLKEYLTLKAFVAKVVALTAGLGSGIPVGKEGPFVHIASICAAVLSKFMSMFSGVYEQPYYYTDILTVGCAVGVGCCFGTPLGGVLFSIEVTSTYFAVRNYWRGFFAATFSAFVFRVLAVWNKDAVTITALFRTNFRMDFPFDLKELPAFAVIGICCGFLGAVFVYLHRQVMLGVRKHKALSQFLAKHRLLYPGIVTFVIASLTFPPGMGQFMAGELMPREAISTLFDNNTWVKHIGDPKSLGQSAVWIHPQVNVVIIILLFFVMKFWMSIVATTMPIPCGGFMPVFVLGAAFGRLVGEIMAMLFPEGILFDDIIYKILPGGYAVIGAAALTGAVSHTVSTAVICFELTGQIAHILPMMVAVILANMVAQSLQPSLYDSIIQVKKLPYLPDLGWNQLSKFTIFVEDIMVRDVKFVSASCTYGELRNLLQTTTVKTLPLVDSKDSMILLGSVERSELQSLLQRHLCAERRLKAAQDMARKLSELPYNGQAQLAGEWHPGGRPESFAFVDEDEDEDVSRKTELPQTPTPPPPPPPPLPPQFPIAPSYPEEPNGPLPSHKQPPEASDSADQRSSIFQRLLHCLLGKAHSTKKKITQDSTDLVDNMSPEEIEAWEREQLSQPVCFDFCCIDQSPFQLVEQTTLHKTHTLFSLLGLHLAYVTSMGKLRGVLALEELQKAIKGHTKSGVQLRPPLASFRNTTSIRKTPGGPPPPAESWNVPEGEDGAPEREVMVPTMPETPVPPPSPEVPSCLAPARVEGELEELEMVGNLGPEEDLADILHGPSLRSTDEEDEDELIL
Excerpt: FIG. 1. […] Please note that the drawing illustrates only the impaled fibre although it is part of an intact muscle that contains many such fibres. All electrodes recorded the membrane potential of the fibre and the two peripheral electrodes were used to inject current (−30 nA, 50 ms). The electrodes were inserted with known inter-electrode distances (X1, X2 and X3). After insertion, current was passed first via the V1 electrode and then via the V3 electrode. The resulting deflections in the membrane voltage were measured by the other electrodes. The steady state deflections in membrane potential were measured and divided by the magnitude of the injected current (−30 nA) to obtain transfer resistances. These were next plotted against inter-electrode distances, and fitted to an exponential function (Panel B), from which Gm could be calculated using linear cable theory. The approach described in panel A and B, was repeated for several muscle fibres in the muscle during exposure at increasing concentrations of compound E-8, with approx. 10 fibres at each concentration. Average Gm at each concentration was plotted as a function of compound concentration in panel C, and fitted to a 4-parameter sigmoidal function from which the EC50 value for the compound was obtained (dashed line)
Apparent CIC-1 affinity was reported by the concentration of compound at which 50% of the compound's full inhibition of CIC-1 was observed (EC50).
CIC-1 Cl^− ion channels generate around 80% of the total membrane conductance (Gm) in resting skeletal muscle fibres of most animals including rat and human (Bretag, A H. Muscle chloride channels. Physiological Reviews, 1987, 67, 618-724). […] CIC-1 inhibition would in such recordings be reflected by a reduction of Gm.
Experimentally, Gm was measured in individual fibres of whole rat soleus muscles using a three micro-electrodes technique described in this example and in full detail elsewhere (Riisager et al., Determination of cable parameters in skeletal muscle fibres during repetitive firing of action potentials. Journal of Physiology, 2014, 592, 4417-4429). Briefly, intact rat soleus muscles were dissected out from 12-14 week old Wistar rats and placed in an experimental chamber that was perfused with a standard Krebs Ringer solution containing 122 mM NaCl, 25 mM NaHCO3, 2.8 mM KCl, 1.2 mM KH2PO4, 1.2 mM MgSO4, 1.3 mM CaCl2, 5.0 mM D-glucose. During experiments, the solution was kept at approx. 30° C. and continuously equilibrated with a mixture of 95% O2 and 5% CO2, pH˜7.4. The experimental chamber was placed in Nikon upright microscope that was used to visualize individual muscle fibres and the three electrodes (glass pipettes filled with 2 M potassium citrate). For Gm measurements, the electrodes were inserted into the same fibre with known inter-electrode distances of 0.35-0.5 mm (V1-V2, X1) and 1.1-1.5 mm (V1-V3, X3) (FIG. 1A). The membrane potential of the impaled muscle fibre was recorded by all electrodes. Two of the electrodes were furthermore used to inject 50 ms current pulses of −30 nA. […] The steady state voltage deflection at each distance was divided by the magnitude of current injected (−30 nA) and the resulting transfer resistances were plotted against inter-electrode distance and the data was fitted to a mono-exponential function from which Gm could be calculated using linear cable theory (FIG. 1B).
To establish a dose response relationship, Gm was first determined in 10 muscle fibres in the absence of compound and then at four increasing compound concentrations with Gm determinations in 5-10 fibres at each concentration. The average Gm values at each concentration were plotted against compound concentration and the data was fitted to sigmoidal function to obtain an EC50 value (FIG. 1C).

[3] = test system: isolated rat soleus muscles; assay: Measurement of force in an in vitro model: isolated rat soleus nerve-muscle preparation with tubocurarine; conditions: Rattus norvegicus, 40 min; 50 μM test compound, after 40 mins of compound exposure; 115 nM tubocurarine for 90 mins; read-out: Point increase (%) of initial force that was restored
Description: FIG. 2. […] Force traces from a representative muscle stimulated to contract in 1) control condition before addition of neuromuscular blocking agent, 2) the force response to stimulation after 90 minutes incubation with Tubocurarine. […] The traces presented in panel A (1, 2, 3), correspond to the dotted lines in panel B, respectively.
Recovery of force is quantified as the percentage of the force prior to tubocurarine that is recovered by the compound.
The current disclosure relates to compounds that inhibit CIC-1 ion channels and increase muscle excitability and thereby improve muscle function in clinical conditions where muscle activation is failing. Such conditions result in loss of contractile function of skeletal muscle, weakness and excessive fatigue. In this series of experiments the compounds were tested for their ability to restore contractile function of isolated rat muscle when the neuromuscular transmission had been compromised akin to neuromuscular disorders.
Experimentally, soleus muscles from 4-5 week old rats were isolated with the motor nerve remaining attached. The nerve-muscle preparations were mounted in experimental setups that enabled electrical stimulation of the motor nerve. Stimulation of the motor nerve led to activation of the muscle fibres and ensuing force production that was recorded. The nerve-muscle preparations were also in these experiments incubated in the standard Krebs Ringer (see example 5) and the solution was heated to 30° C. and continuously equilibrated with a mixture of 95% O2 and 5% CO2, pH˜7.4.
After mounting the nerve-muscle preparation in the experimental setup, the contractile function of the muscle was initially assessed under the control conditions (FIG. 2A). […] The experimental condition mimics the failing neuromuscular transmission in a range of neuromuscular disorders. After addition of tubocurarine the contractile force declined over the next 90 mins to 10-50% of the control force. 50 μM of the test compound was then added and the contractile force recovered despite the continued presence of tubocurarine. To quantify the ability of the compound to restore force the percentage of the initial force that was restored was determined after 40 mins of compound exposure (FIG. 2B) and the point increase is reported in Table 3.

T1 sequence (P35523 whole entry, canonical isoform): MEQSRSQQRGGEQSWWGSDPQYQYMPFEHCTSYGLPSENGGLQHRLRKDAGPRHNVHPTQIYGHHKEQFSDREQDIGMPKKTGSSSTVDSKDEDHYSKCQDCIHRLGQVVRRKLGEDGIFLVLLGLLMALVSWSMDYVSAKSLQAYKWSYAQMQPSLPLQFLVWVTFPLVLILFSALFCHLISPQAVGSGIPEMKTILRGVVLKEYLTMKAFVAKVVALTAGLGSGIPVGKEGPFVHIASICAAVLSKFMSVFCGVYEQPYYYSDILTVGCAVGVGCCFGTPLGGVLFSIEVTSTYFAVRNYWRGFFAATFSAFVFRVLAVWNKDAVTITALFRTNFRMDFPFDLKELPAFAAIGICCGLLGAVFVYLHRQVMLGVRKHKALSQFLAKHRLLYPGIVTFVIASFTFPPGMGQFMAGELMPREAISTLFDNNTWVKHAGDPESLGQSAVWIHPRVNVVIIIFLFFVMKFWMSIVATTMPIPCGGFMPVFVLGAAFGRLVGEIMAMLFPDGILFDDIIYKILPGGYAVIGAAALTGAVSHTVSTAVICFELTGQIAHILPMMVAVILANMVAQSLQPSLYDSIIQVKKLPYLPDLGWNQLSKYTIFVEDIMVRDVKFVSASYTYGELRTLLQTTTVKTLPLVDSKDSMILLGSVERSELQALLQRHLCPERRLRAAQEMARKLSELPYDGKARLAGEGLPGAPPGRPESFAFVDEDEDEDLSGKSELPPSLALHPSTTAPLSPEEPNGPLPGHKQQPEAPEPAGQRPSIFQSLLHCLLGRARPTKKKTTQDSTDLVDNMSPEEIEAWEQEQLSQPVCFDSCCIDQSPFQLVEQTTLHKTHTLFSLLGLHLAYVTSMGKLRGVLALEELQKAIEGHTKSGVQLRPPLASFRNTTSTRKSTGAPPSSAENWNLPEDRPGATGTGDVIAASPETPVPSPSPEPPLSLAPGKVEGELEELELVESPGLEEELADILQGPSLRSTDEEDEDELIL

Structure (SMILES) | ΔV1/2 (difference in half activation voltage of CIC-1 channels) [1] [mV] | EC50 [2] [µM] | activation at 50 µM [3] [%]
C[C@H](Oc1ccc(Br)cc1Br)C(=O)NC#N [Compound B-2, (2S)-N-cyano-2-(2,4-dibromophenoxy)propanamide] | 6.2 | – | –
C[C@H](Oc1ccc(Cl)cc1)C(=O)NC#N [Compound B-4, (2S)-2-(4-chlorophenoxy)-N-cyanopropanamide] | 21.2 | – | –
CC(C)[C@H](Oc1ccc(Br)cc1)C(=O)NC#N [Compound B-5, (2S)-2-(4-bromophenoxy)-N-cyano-3-methylbutanamide] | 26.6 | 19.6 | –
CC(=O)N1CCC(ONC(=O)[C@H](C)Oc2ccc(Br)cc2)C1 (stereo partly shown) [Compound C-8] | 10.3 | – | 45
CC(=O)NCCON(C(C)=O)C(=O)[C@H](C)Oc1ccc(Cl)cc1 [Compound C-22, (2S)-N-acetyl-2-(4-chlorophenoxy)-N-(2-acetamidoethoxy)propanamide] | – | 7.8 | 22
CONC(=O)[C@H](C)Oc1ccc(Br)cc1F [Compound C-64, (2S)-2-(4-bromo-2-fluorophenoxy)-N-methoxypropanamide] | – | 3.1 | 24
C[C@H](Oc1ccc(Cl)cc1)C(=O)NOCC1CC1 [Compound C-74, (2S)-2-(4-chlorophenoxy)-N-(cyclopropylmethoxy)propanamide] | – | 3.4 | 22
C[C@H](Oc1ccc(Cl)cc1)C(=O)NOCC1CCC1 [Compound C-75, (2S)-2-(4-chlorophenoxy)-N-(cyclobutylmethoxy)propanamide] | – | 2 | 36
COC(=O)CONC(=O)[C@H](C)Oc1ccc(Cl)cc1 [Compound C-78, methyl 2-{[(2S)-2-(4-chlorophenoxy)propanamido]oxy}acetate] | – | 3.1 | 41
CONC(=O)[C@H](C)Oc1ccc(Cl)cc1 [Compound C-85, (2S)-2-(4-chlorophenoxy)-N-methoxypropanamide] | – | 10.1 | 45
CC[C@H](Oc1ccc(Br)cc1)c1nn[nH]n1 [Compound E-5, 5-[(1S)-1-(4-bromophenoxy)propyl]-2H-1,2,3,4-tetrazole] | 13.9 | – | –
